Source: US4952572A (priority 1989, dated 1990)

Experiments:
[1] = system: murine and human tumor cell lines; assay: In vitro cytotoxicity, summary; conditions: in words
Method: (§1) On the other hand, the cytotoxic activities against P388 and P388/VCR cells were determined by counting the number of viable cells.

[2] = system: Gram-positive aerobic bacteria; format: cell-based; conditions: in words
[3] = Acute toxicity in mice, intramuscular; format: in vivo; conditions: 5 mg/kg
P388/VCR cells = assay: In vitro cytotoxicity, viable cell count; conditions: in words
Method: as §1

Gram-negative organisms = format: cell-based; conditions: in words; relative to Gram-positive aerobic bacteria
Solubility = format: physicochemical
[4] = system: Staphylococcus aureus Smith; assay: In vivo activity against S. aureus Smith infection (ip) in mice; conditions: im, single
Method: Mice were challenged intraperitoneally with 100 times the lethal dose of the pathogen in a 5% suspension of hog gastric mucin (American Laboratory, Omaha, Neb.). BU-3420T was administered to mice intramuscularly just before the bacterial challenge.

Moser cells = assay: In vitro cytotoxicity, neutral red; format: cell-based, human
Cryptococcus neoformans = assay: In vitro antifungal activity, summary; format: cell-based; conditions: relative to BU-3420T acetate

What does the source list for `COC1=C(C(=O)O)C(C)C23OC24c2cc(O)c5c(c2NC3C#C/C=C\C#CC14)C(=O)c1c(O)ccc(O)c1C5=O` (stereo not shown) [BU-3420T]?
cytotoxicity [1]: potent cytotoxicity; antibacterial activity [2]: intensely potent activity; toxicity [3]: did not show any toxicity; cytotoxicity against VCR-sensitive vs resistant P388 cells (P388/VCR cells): same cytotoxicities; susceptibility of Gram-negative organisms (Gram-negative organisms): a little less susceptible; solubility (Solubility; in chloroform, ethyl acetate, methanol and ethanol): slightly soluble; solubility (Solubility; in dimethyl sulfoxide, dimethylformamide and dioxane): soluble; solubility (Solubility; in water and n-hexane): insoluble; No. of survivor/tested ([4]; 0.01 mg/kg): 0/5; No. of survivor/tested ([4]; 0.04 mg/kg): 0/5

Which “resistance of Moser and HCT-116 relative to B16-F10” value (Moser cells; Moser and HCT-116 cells vs B16-F10) does the source give for `CO[C@@]12[C@H](COC(N)=O)C3=C(C(=O)C(C)=C(N)C3=O)N1C[C@@H]1N[C@@H]12` [Mitomycin C] here?
Its value is “slightly more resistant”.

With `C[C@@H]1[C@H](O)[C@@H](C)/C=C/C=C/C=C/C=C/C=C/C=C/C=C/[C@H](O[C@@H]2O[C@H](C)[C@@H](O)[C@H](N)[C@@H]2O)C[C@@H]2O[C@](O)(C[C@@H](O)C[C@@H](O)[C@H](O)CC[C@@H](O)C[C@@H](O)CC(=O)O[C@H]1C)C[C@H](O)[C@H]2C(=O)O` [Amphotericin B] as the compound, how does the “susceptibility of Cryptococcus neoformans” value (Cryptococcus neoformans) read?
The value was “more susceptible to amphotericin B”.

With `COC1=C(C(=O)O)C(C)C23OC24c2cc(OC(C)=O)c5c(c2NC3C#C/C=C\C#CC14)C(=O)c1c(OC(C)=O)ccc(OC(C)=O)c1C5=O` (stereo not shown) [BU-3420T acetate] as the compound, how does the antibacterial activity [2] read?
Its antibacterial activity is “intensely potent activity”.

What about the IC50 (Moser cells; Homo sapiens, Moser, 72 hours) of the same compound?
Its IC50 is 0.003 ng/mL.

What about the “susceptibility of Gram-negative organisms” value (Gram-negative organisms) of the same compound?
The value was “a little less susceptible”.

And the solubility (Solubility; in organic solvents such as chloroform, methanol and ethanol, relative to BU-3420T)?
Its solubility is “much improved solubility”.
